# pIC50: −log10 of the molar value.
# Columns and labels:
# NLRP3 [1] = molecular target: T1, NLRP3 (Homo sapiens, UniProt Q96P20); test: THP-1 cells pyroptosis assay (LPS-primed, nigericin-triggered, resazurin readout); format: cell-based; parameters: Seed THP-1 cells (25,000 cells/well) containing 1.0 μg/ml LPS in 40 μl of RPMI medium; host or cells: THP-1 cells, LPS-primed, nigericin-triggered; settings: NLRP3 inhibitory activity in THP-1 cells, 1.0 μg/ml LPS, 5 μM nigericin
# Protocol: THP-1 cells (ATCC #TIB-202) were grown in RPMI containing L-glutamine (Gibco #11835) supplemented with ImM sodium pyruvate (Sigma #S8636) and penicillin (100 units/ml)/streptomycin (0.1 mg/ml) (Sigma #P4333) in 10% Fetal Bovine Serum (FBS) (Sigma #F0804). The cells were routinely passaged and grown to confluency ([…]). On the day of the experiment, THP-1 cells were harvested and resuspended into RPMI medium (without FBS). The cells were then counted and viability (>90%) checked by Trypan blue (Sigma #T8154). Appropriate dilutions were made to give a concentration of 625,000 cells/ml. To this diluted cell solution was added LPS (Sigma #L4524) to give a 1 μg/ml Final Assay Concentration (FAC). […] of the final preparation was aliquoted into each well of a 96-well plate. The plate thus prepared was used for compound screening.
# The following method step-by-step assay was followed for compound screening. • 1. Seed THP-1 cells (25,000 cells/well) containing 1.0 μg/ml LPS in 40 μl of RPMI medium (without FBS) in 96-well, black walled, clear bottom cell culture plates coated with poly-D-lysine (VWR #734-0317) • 2. Add 5 μl compound (8 points half-log dilution, with 10 μM top dose) or vehicle (DMSO 0.1% FAC) to the appropriate wells • 3. Incubate for 3 hrs at 37° C. in 5% CO2 • 4. Add 5 μl nigericin (Sigma #N7143) (FAC 5 μM) to all wells • 5. Incubate for 1 hr at 37° C. and 5% CO2 • 6. At the end of the incubation period, spin plates at 300×g for 3 mins and remove supernatant • 7. Then add 50 μl of resazurin (Sigma #R7017) (FAC 100 μM resazurin in RPMI medium without FBS) and incubate plates for a further 1-2 hrs at 37° C. and 5% CO2 • 8. Plates were read in an Envision reader at Ex 560 nm and Em 590 nm • 9. IC50 data is fitted to a non-linear regression equation (log inhibitor vs response-variable slope 4-parameters)
# NLRP3 [2] = molecular target: T1, NLRP3; test: Human whole blood IL-1β release assay (LPS + nigericin, AlphaLisa); format: cell-based; parameters: Plate out 80 μl of whole blood containing 1 μg/ml of LPS in 96-well, clear bottom cell culture plate; from tissue; host or cells: human whole blood from healthy donors (Li-heparin); settings: NLRP3 inhibitory activity in human whole blood, 1 μg/ml LPS, 10 μM nigericin, read-out: HWB IC50
# Protocol: For systemic delivery, the ability to inhibit NLRP3 when the compounds are present within the bloodstream is of great importance. For this reason, the NLRP3 inhibitory activity of a number of compounds in human whole blood was investigated in accordance with the following protocol.
# Human whole blood in Li-heparin tubes was obtained from healthy donors from a volunteer donor panel. • 1. Plate out 80 μl of whole blood containing 1 μg/ml of LPS in 96-well, clear bottom cell culture plate (Corning #3585) • 2. Add 10 μl compound (8 points half-log dilution with 10 μM top dose) or vehicle (DMSO 0.1% FAC) to the appropriate wells • 3. Incubate for 3 hrs at 37° C., 5% CO2 • 4. Add 10 μl nigericin (Sigma #N7143) (10 μM FAC) to all wells • 5. Incubate for 1 hr at 37° C., 5% CO2 • 6. At the end of the incubation period, spin plates at 300×g for 5 mins to pellet cells and remove 20 μl of supernatant and add to 96-well v-bottom plates for IL-1β analysis (note: these plates containing the supernatants can be stored at −80° C. to be analysed at a later date) • 7. IL-1β was measured according to the manufacturer protocol (Perkin Elmer-AlphaLisa IL-1 Kit AL220F-5000) • 8. IC50 data is fitted to a non-linear regression equation (log inhibitor vs response-variable slope 4-parameters)
# T1 sequence (Q96P20 whole entry): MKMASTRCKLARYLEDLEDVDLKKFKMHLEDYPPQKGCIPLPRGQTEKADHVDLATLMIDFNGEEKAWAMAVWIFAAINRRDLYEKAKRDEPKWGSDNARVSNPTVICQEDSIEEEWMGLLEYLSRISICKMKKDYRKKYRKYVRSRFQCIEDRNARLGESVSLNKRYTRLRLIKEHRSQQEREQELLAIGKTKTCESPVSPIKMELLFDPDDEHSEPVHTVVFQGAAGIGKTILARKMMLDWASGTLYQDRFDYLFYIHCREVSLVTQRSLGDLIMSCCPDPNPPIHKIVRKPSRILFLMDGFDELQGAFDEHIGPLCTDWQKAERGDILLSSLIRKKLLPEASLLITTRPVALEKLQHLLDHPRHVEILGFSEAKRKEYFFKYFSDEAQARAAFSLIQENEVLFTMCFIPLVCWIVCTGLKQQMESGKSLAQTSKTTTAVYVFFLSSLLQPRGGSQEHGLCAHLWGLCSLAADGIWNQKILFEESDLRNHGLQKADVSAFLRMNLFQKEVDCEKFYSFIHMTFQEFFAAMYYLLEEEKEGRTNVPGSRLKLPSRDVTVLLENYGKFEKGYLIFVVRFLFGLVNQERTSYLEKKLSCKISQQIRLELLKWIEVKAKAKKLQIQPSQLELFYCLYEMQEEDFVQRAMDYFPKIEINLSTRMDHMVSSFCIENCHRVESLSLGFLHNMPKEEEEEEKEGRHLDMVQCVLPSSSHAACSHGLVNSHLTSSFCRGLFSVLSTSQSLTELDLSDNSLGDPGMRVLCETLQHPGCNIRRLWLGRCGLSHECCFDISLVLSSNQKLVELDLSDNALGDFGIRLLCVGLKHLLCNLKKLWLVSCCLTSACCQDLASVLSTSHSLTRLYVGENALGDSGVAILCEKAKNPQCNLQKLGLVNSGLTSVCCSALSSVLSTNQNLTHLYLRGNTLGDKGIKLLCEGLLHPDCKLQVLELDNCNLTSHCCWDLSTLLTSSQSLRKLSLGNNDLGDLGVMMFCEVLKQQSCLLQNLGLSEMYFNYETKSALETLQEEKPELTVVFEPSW
smiles,measurement,setting,value
"O=C(Nc1c2c(cc3c1CCC3)CCC2)NS(=O)(=O)CCc1ccccc1 [Example 40, N-((1,2,3,5,6,7-Hexahydro-s-indacen-4-yl)carbamoyl)-2-phenylethanesulfonamide]",pIC50,NLRP3 [1],≥ 6.00
same,pIC50,NLRP3 [2],< 5.00
